Earlier results, collected in EP1027077B1, “MAGNETIC RESONANCE IMAGING AGENTS FOR THE DELIVERY OF THERAPEUTIC AGENTS” (Research Corporation Technologies, Inc, priority 1997, dated 1999).

Conditions: thermodynamic stability of the Gd(III) chelate; background statement

SMILES | stability constant (K) / formation constant, logK
O=C([O-])CN(CCN(CC(=O)[O-])CC(=O)[O-])CCN(CC(=O)[O-])CC(=O)[O-].[Gd+3] [Gd(DTPA)^2-] | 22.4
O=C([O-])CN1CCN(CC(=O)[O-])CCN(CC(=O)[O-])CCN(CC(=O)[O-])CC1.[Gd+3] [Gd-DOTA] | 28.5
